Source: patent US20170100396A1 (priority 2015, published 2017)

tested on: influenza A virus (IAV) A/Aichi/2/68 (H3N2); assay: microbe, parasite or virus in culture; format: cell-based, influenza A virus in MDCK cells; details: not given

Structure (SMILES)	CPE (result in words)
COC(=O)[C@H]1CC[C@H](NC(=O)[C@H](NC(=O)c2c[nH]c3ncc(C4CC4)nc23)C2CCCCC2)CC1	Active

same assay, conditions: Influenza A virus, H3N2, MDCK, 48 h, read-out: CPE IC50

Structure (SMILES)	IC50
O=C(N[C@H](C(=O)N1CCCC1)C1CC1)c1c[nH]c2ncc(C3CC3)nc12	> 25 µM
CC(C)C[C@@H](NC(=O)c1c[nH]c2ncc(C3CC3)nc12)C(=O)N1CCCC1	> 100 µM
CC(C)C[C@@H](NC(=O)c1c[nH]c2ncc(C3CC3)nc12)C(=O)N1CC2(CN(C(=O)OC(C)(C)C)C2)C1	> 100 µM
O=C(N[C@@H](C(=O)N1CC2(COC2)C1)C1CC1)c1c[nH]c2ncc(C3CC3)nc12	> 100 µM
O=C(N[C@@H](C(=O)N1CCN(C2CCOCC2)CC1)C1CC1)c1c[nH]c2ncc(C3CC3)nc12	> 100 µM
O=C(N[C@@H](C(=O)N1CCC2(CCN(Cc3ccccc3)C2=O)C1)C1CC1)c1c[nH]c2ncc(C3CC3)nc12 (stereo partly shown)	27 µM
O=C(N[C@@H](C(=O)NCC(=O)N1CCS(=O)(=O)CC1)C1CC1)c1c[nH]c2ncc(C3CC3)nc12	> 100 µM
CC(C)C[C@@H](NC(=O)c1c[nH]c2ncc(C3CC3)nc12)C(=O)NCCC(=O)NC1CCCC1	> 100 µM
O=C(N[C@@H](C(=O)NCC(=O)N1CCCC1)C1CC1)c1c[nH]c2ncc(C3CC3)nc12	> 100 µM
CC(C)C[C@@H](NC(=O)c1c[nH]c2ncc(C3CC3)nc12)C(=O)NCCC(=O)Nc1ccccc1	> 100 µM
Cc1ccc(CNC(=O)c2c[nH]c3ncc(C(C)C)nc23)nn1	139 µM
O=C(N[C@@H](C(=O)N1CC2(CCC2)C1)C1CC1)c1c[nH]c2ncc(C3CC3)nc12	> 100 µM
CC(C)(NC(=O)c1c[nH]c2ncc(C3CC3)nc12)C(=O)N1CCCC1	> 100 µM
O=C(N[C@@H](C(=O)Nc1ccccc1)C1CC1)c1c[nH]c2ncc(C3CC3)nc12	> 100 µM
O=C(N[C@@H](C(=O)N1CCC[C@@H](C(=O)N2CCCC2)C1)C1CC1)c1c[nH]c2ncc(C3CC3)nc12	> 100 µM
COc1ccc(NC(=O)[C@H](NC(=O)c2c[nH]c3ncc(C4CC4)nc23)C2CC2)cc1	> 100 µM
O=C(N[C@@H](C(=O)NCc1ccccc1)C1CC1)c1c[nH]c2ncc(C3CC3)nc12	18.2 µM
CC(C)c1cnc2[nH]cc(C(=O)NCCCN3CCOCC3)c2n1	> 100 µM
CC(C)c1cnc2[nH]cc(C(=O)NC3(C#N)CC3)c2n1	34.7 µM
O=C(N[C@@H](C(=O)N1CCCCC1)C1CC1)c1c[nH]c2ncc(C3CC3)nc12	> 100 µM
O=C(N[C@@H](C(=O)N1CCC[C@@H](C(=O)N2CCCCC2)C1)C1CC1)c1c[nH]c2ncc(C3CC3)nc12	> 100 µM

Structure (SMILES)	IC50
COc1ccc(CNC(=O)[C@H](NC(=O)c2c[nH]c3ncc(C4CC4)nc23)C2CC2)cc1	10.3 µM
O=C(N[C@@H](C(=O)NCCC(=O)N1CCOCC1)C1CC1)c1c[nH]c2ncc(C3CC3)nc12	> 100 µM
CC(C)C[C@@H](NC(=O)c1c[nH]c2ncc(C3CC3)nc12)C(=O)N1CC2(CNC2)C1	> 100 µM
CC(C)C[C@@H](NC(=O)c1c[nH]c2ncc(C3CC3)nc12)C(=O)NCC(=O)NCc1ccccn1	> 100 µM
O=C(N[C@@H](C(=O)N1CCC[C@H](C(=O)N2CCOCC2)C1)C1CC1)c1c[nH]c2ncc(C3CC3)nc12	> 100 µM
O=C(N[C@@H](C(=O)NCc1ccncc1)C1CC1)c1c[nH]c2ncc(C3CC3)nc12	40.4 µM
O=C(N[C@@H](C(=O)NC1CCCc2ccccc21)C1CC1)c1c[nH]c2ncc(C3CC3)nc12 (stereo partly shown)	> 100 µM
O=C(N[C@@H](C(=O)NCc1cccc(F)c1)C1CC1)c1c[nH]c2ncc(C3CC3)nc12	9.2 µM
O=C(N[C@@H](C(=O)N1CC(F)(F)C1)C1CC1)c1c[nH]c2ncc(C3CC3)nc12	> 100 µM
O=C(N[C@@H](C(=O)N1CCOCC1)C1CC1)c1c[nH]c2ncc(C3CC3)nc12	> 100 µM
O=C(N[C@@H](C(=O)N1CCC[C@@H](C(=O)N2CCOCC2)C1)C1CC1)c1c[nH]c2ncc(C3CC3)nc12	> 100 µM
CC(C)C[C@@H](NC(=O)c1c[nH]c2ncc(C3CC3)nc12)C(=O)NCC(=O)NCc1ccccc1	> 100 µM
O=C(N[C@@H](C(=O)N1CCC[C@H](C(=O)N2CCCC2)C1)C1CC1)c1c[nH]c2ncc(C3CC3)nc12	> 100 µM
CN1CCN(C(=O)CCNC(=O)[C@H](NC(=O)c2c[nH]c3ncc(C4CC4)nc23)C2CC2)CC1	> 100 µM
O=C(N[C@@H](C(=O)NCCC(=O)N1CCCCC1)C1CC1)c1c[nH]c2ncc(C3CC3)nc12	> 100 µM
CCCNC(=O)c1c[nH]c2ncc(C(C)C)nc12	18.1 µM
O=C(N[C@@H](C(=O)NCCc1ccc(Cl)cc1)C1CC1)c1c[nH]c2ncc(C3CC3)nc12	> 100 µM
O=C(N[C@@H](C(=O)NCc1ccccc1F)C1CC1)c1c[nH]c2ncc(C3CC3)nc12	14.6 µM
CC(C)C[C@@H](NC(=O)c1c[nH]c2ncc(C3CC3)nc12)C(=O)NCCC(=O)NCc1ccccn1	> 100 µM
N#CC(NC(=O)[C@H](NC(=O)c1c[nH]c2ncc(C3CC3)nc12)C1CC1)c1ccc(C(F)(F)F)cc1 (stereo partly shown)	> 10 µM
O=C(N[C@@H](C(=O)NCCC(=O)N1CCS(=O)(=O)CC1)C1CC1)c1c[nH]c2ncc(C3CC3)nc12	> 100 µM

Structure (SMILES)	IC50
CC(C)C[C@@H](NC(=O)c1c[nH]c2ncc(C3CC3)nc12)C(=O)NCCC(=O)NCc1ccccc1	> 100 µM
O=C(N[C@@H](C(=O)N1CCC[C@H](C(=O)N2CCCCC2)C1)C1CC1)c1c[nH]c2ncc(C3CC3)nc12	33.1 µM
O=C(NCC(=O)N1CCCC1)c1c[nH]c2ncc(Br)nc12	> 100 µM
CC1(CNC(=O)c2c[nH]c3ncc(-c4ccccc4Cl)nc23)CCC(=O)N1 (stereo not shown)	> 100 µM
COc1ccc(CCNC(=O)[C@H](NC(=O)c2c[nH]c3ncc(C4CC4)nc23)C2CC2)cc1	> 100 µM
CC(C)c1cnc2[nH]cc(C(=O)NC(C)C(C)(C)O)c2n1 (stereo not shown)	12.2 µM
COCCN(CCOC)C(=O)c1c[nH]c2ncc(C(C)C)nc12	> 100 µM
CCN(C)C(=O)c1c[nH]c2ncc(C(C)C)nc12	> 100 µM
CC(C)c1cnc2[nH]cc(C(=O)N3CCC(F)(F)CC3)c2n1	> 100 µM
O=C(N[C@@H](C(=O)NCc1ccccc1Cl)C1CC1)c1c[nH]c2ncc(C3CC3)nc12	8.8 µM
O=C(N[C@@H](C(=O)NCc1ccc(C(F)(F)F)cc1)C1CC1)c1c[nH]c2ncc(C3CC3)nc12	4.6 µM
COc1ccc(C(C#N)NC(=O)[C@H](NC(=O)c2c[nH]c3ncc(C4CC4)nc23)C2CC2)cc1 (stereo partly shown)	4.9 µM
O=C(N[C@@H](C(=O)NCc1ccc(Cl)c(Cl)c1)C1CC1)c1c[nH]c2ncc(C3CC3)nc12	4.7 µM
O=C(N[C@@H](C(=O)NCc1ccc(OC(F)(F)F)cc1)C1CC1)c1c[nH]c2ncc(C3CC3)nc12	5.4 µM
O=C(N[C@@H](C(=O)NCc1ccc(F)cc1)C1CC1)c1c[nH]c2ncc(C3CC3)nc12	16.1 µM
O=C(N[C@@H](C(=O)NCc1ccc(F)c(F)c1)C1CC1)c1c[nH]c2ncc(C3CC3)nc12	14.8 µM
O=C(N[C@@H](C(=O)NCc1cccc(Cl)c1)C1CC1)c1c[nH]c2ncc(C3CC3)nc12	7.3 µM
CS(=O)(=O)CCNC(=O)c1c[nH]c2ncc(-c3ccccc3Cl)nc12	> 100 µM
O=C(N[C@@H](C(=O)NCc1cc(Cl)cc(Cl)c1)C1CC1)c1c[nH]c2ncc(C3CC3)nc12	> 25 µM
CC(C)NC(=O)c1c[nH]c2ncc(-c3ccccc3C(F)(F)F)nc12	> 100 µM
CC(C)C[C@@H](NC(=O)c1c[nH]c2ncc(C3CC3)nc12)C(=O)NC1CCCc2ccccc21 (stereo partly shown)	> 100 µM
